# Reference: PMC11420244, “Evaluation of the effect of modafinil on the pharmacokinetics of encorafenib and binimetinib in patients with BRAF V600-mutant advanced solid tumors” (Cancer Chemotherapy and Pharmacology, 2024)
# Where two headings read alike, the source gives them in different places.
# Tests used:
# [1] = Phase 1 clinical DDI study: steady-state plasma PK (noncompartmental analysis) with and without modafinil; type: in vivo, Human; conditions: for MRAUC last (metabolite ratio), Median (range) / MRC max (metabolite ratio), Median (range): metabolite to parent; for AUClast, Median (range) / Cmax, Median (range) / T1/2, Median (range) / Tmax, Median (range): plasma, patients
# Method: Encorafenib 450 mg QD and binimetinib 45 mg BID were administered starting on Day 1. Patients then received continuous treatment of 400 mg QD modafinil on Day 15 through Day 21. Blood samples for measurement of plasma concentrations of encorafenib (and its metabolite, LHY746) and binimetinib (and its active metabolite, AR00426032), were collected at 0, 1, 2, 3, 4, 6 and 8 h post dose on Day 14 and Day 21.
# Human PK plasma samples were analyzed for quantitation of all PK analytes at PPD (Middleton, Wisconsin, US) using validated, sensitive, and specific HPLC/MS/MS methods in compliance with laboratory SOPs.
# PK parameters including, but not limited to, Cmax and AUClast were calculated for each participant using noncompartmental analysis (NCA) methods using the WinNonlin software package (Phoenix WinNonlin Professional, version 8.0 Pharsight Corporation, Mountain View, California) for PK analytes including encorafenib and its metabolite LHY746, and binimetinib and its metabolite AR00426032.
# All patients who received at least one dose of any study drug were included in the Safety Set population. The Evaluable PK Set included all patients with sufficient concentration data to calculate at least one PK parameter for encorafenib and binimetinib on Days 14 and 21. Patients who discontinued, missed 3 or more consecutive doses of encorafenib prior to completion of the last PK sampling on Day 14, or required a dose reduction of encorafenib prior to completion of the last PK sampling on Day 14 were excluded from the Evaluable PK set. In addition, patients who missed any dose of study drugs on any of the PK days, or who vomited within 4 h after dosing on any of the PK days were excluded from Evaluable PK set.
# An analysis of variance (ANOVA) was performed on the natural log (ln)-transformed Cmax and AUClast of encorafenib, LHY746, binimetinib, and AR00426032. The least squares means (LSM) geometric mean ratio (GMR) and associated 90% confidence interval (CI) for each PK parameter were calculated using the exponentiation of the difference between treatment LSM from the analyses on the ln-transformed parameters and expressed as a percentage of Day 21 relative to Day 14.
# [2] = Reported DDI studies of CYP3A substrates with strong, moderate or weak CYP3A inducers; type: in vivo
# Excerpt: Another strategy to predict the effect strong induction may have on encorafenib PK, or the PK of other CYP3A substrates, but with fewer assumptions was proposed in a review by Molenaar-Kuijsten et al.. Based on a review of 12 approved oral anticancer drugs primarily metabolized by CYP3A, if no clinical DDI data were available for moderate inducers, an effect of 50% compared to strong inducers could be assumed. After expanding the dataset of Molenaar-Kuijsten to include 3 additional approved oral anti-cancer drugs (fuzuloparib, pirtobrutinib, and fedratinib) metabolized by CYP3A, we applied this approach in the opposite direction (lack of clinical data for the effect of strong CYP3A4 inducers) given available clinical DDI data generated in this study for encorafenib (Table 3). The median ratio of the decrease for a strong inducer to a moderate inducer was 1.56 and ranged from 1.15 for cobimetinib to 2.43 for palbociclib. […] The upper end of this range is consistent with PBPK simulations conducted prior to the study, indicating encorafenib exposures would decrease by ∼ 58% in combination with rifampin (based on a model with some simplifying assumptions) and would also be consistent with the recommendations based on in vitro data to avoid strong inducers in combination with encorafenib. This approach to managing potential coadminsitration of encorafenib with a strong inducer of CYP3A is the most conservative due to lack of more precise extrapolation methods and clincial data.
# [3] = cited from earlier work; for Effect of Strong CYP3A Inducer on AUC (decrease): Rifampin
# [4] = PBPK modeling; cited from earlier work
# [5] = cited from earlier work
# [6] = Day 14, without modafinil, steady state
# [7] = Day 21 (with modafinil) relative to Day 14 (without)
# [8] = Day 21, with modafinil 400 mg QD
# [9] = Day 21, with modafinil 400 mg QD, steady state
smiles,measurement,setting,value
O=C(NOCCO)c1cc2[nH]cnc2c(F)c1Nc1ccc(Br)cc1F [AR00426032],"MRAUC last (metabolite ratio), Median (range)","[1]; Day 14, without modafinil",0.0482 (0.0182–0.138)
same,"MRC max (metabolite ratio), Median (range)","[1]; Day 14, without modafinil",0.0367 (0.0165–0.0926)
same,"AUClast, Median (range)",[1]; [6],127 (36.1–226) ng*hr/mL
same,"Cmax, Median (range)",[1]; [6],27.5 (8.23–53.4) ng/mL
same,"T1/2, Median (range)",[1]; [6],5.44 (2.57–8.86) hr
same,"Tmax, Median (range)",[1]; [6],2.00 (0.88-3.00) hr
same,AUClast GMR (geometric mean ratio),[1]; [7],0.977
same,Cmax GMR (geometric mean ratio),[1]; [7],0.954
same,MRAUClast GMR,[1]; [7],1.02
same,MRCmax GMR,[1]; [7],0.950
same,"MRAUC last (metabolite ratio), Median (range)",[1]; [8],0.0440 (0.0275–0.123)
same,"MRC max (metabolite ratio), Median (range)",[1]; [8],0.0335 (0.0192–0.0850)
same,"AUClast, Median (range)",[1]; [9],111 (70.9–197) ng*hr/mL
same,"Cmax, Median (range)",[1]; [9],23.8 (13.7–40.0) ng/mL
same,"T1/2, Median (range)",[1]; [9],5.75 (2.88–18.1) hr
same,"Tmax, Median (range)",[1]; [9],2.00 (0.95–2.23) hr
same,"Time at which mean plasma concentrations typically reach peak levels, postdose","[1]; Days 14 and 21, steady state",2 h
Cc1cc(Nc2ncc(Cl)c(Nc3ccccc3S(=O)(=O)C(C)C)n2)c(OC(C)C)cc1C1CCNCC1 [Ceritinib],Strong CYP3A Inducer Effect /Moderate CYP3A Inducer Effect,[2]; ratio of AUC decreases,1.59
same,Effect of Moderate CYP3A Inducer on AUC (decrease),[3]; Efavirenz,↓ 43%
same,Effect of Strong CYP3A Inducer on AUC (decrease),[3],↓ 68.5%
O=C(c1ccc(F)c(F)c1Nc1ccc(I)cc1F)N1CC(O)([C@@H]2CCCCN2)C1 [Cobimetinib],Strong CYP3A Inducer Effect /Moderate CYP3A Inducer Effect,[2]; ratio of AUC decreases,1.15
same,Effect of Moderate CYP3A Inducer on AUC (decrease),[3]; Efavirenz,↓ 72%
same,Effect of Strong CYP3A Inducer on AUC (decrease),[3],↓ 83%
same,Reduction in exposure in combination with weak CYP3A inducer vemurafenib,[3]; in vivo,13%
same,Predicted reduction in AUC with moderate CYP3A inducer,[4],72%
same,Predicted reduction in AUC with strong CYP3A inducer,[4],83%
Cc1cnc(Nc2ccc(OCCN3CCCC3)cc2)nc1Nc1cccc(S(=O)(=O)NC(C)(C)C)c1 [Fedratinib],Strong CYP3A Inducer Effect /Moderate CYP3A Inducer Effect,[2]; ratio of AUC decreases,1.72
same,Effect of Moderate CYP3A Inducer on AUC (decrease),[3]; Efavirenz,↓ 47%
same,Effect of Strong CYP3A Inducer on AUC (decrease),[3],↓ 81%
O=C(c1cc(Cc2n[nH]c(=O)c3ccccc23)ccc1F)N1CCn2nc(C(F)(F)F)nc2C1 [Fuzuloparib],Strong CYP3A Inducer Effect /Moderate CYP3A Inducer Effect,[2]; ratio of AUC decreases,1.45
same,Effect of Moderate CYP3A Inducer on AUC (decrease),[3]; Efavirenz,↓ 22%
same,Effect of Strong CYP3A Inducer on AUC (decrease),[3],↓ 32%
O=C(c1cc(Cc2n[nH]c(=O)c3ccccc23)ccc1F)N1CCN(C(=O)C2CC2)CC1 [Olaparib],Strong CYP3A Inducer Effect /Moderate CYP3A Inducer Effect,[2]; ratio of AUC decreases,1.38
same,Effect of Moderate CYP3A Inducer on AUC (decrease),[3]; Efavirenz,↓ 57.3%
C=CC(=O)Nc1cc(Nc2nccc(-c3cn(C)c4ccccc34)n2)c(OC)cc1N(C)CCN(C)C [Osimertinib],Strong CYP3A Inducer Effect /Moderate CYP3A Inducer Effect,"[2]; human, in vivo",1.87
same,Effect of Moderate CYP3A Inducer on AUC (decrease),[3]; Efavirenz,↓ 42%
same,Effect of Strong CYP3A Inducer on AUC (decrease),[3],↓ 78.5%
same,Effect of Strong CYP3A Inducer on AUC (decrease),[3]; listed as osimertinib,87%
CC(=O)c1c(C)c2cnc(Nc3ccc(N4CCNCC4)cn3)nc2n(C2CCCC2)c1=O [Palbociclib],Strong CYP3A Inducer Effect /Moderate CYP3A Inducer Effect,[2]; ratio of AUC decreases,2.43
same,Effect of Moderate CYP3A Inducer on AUC (decrease),[3]; Efavirenz,38%
same,Effect of Moderate CYP3A Inducer on AUC (decrease),[3]; Modafinil,32%
same,Effect of Strong CYP3A Inducer on AUC (decrease),[3],↓ 85.2%
same,"Effect of Moderate CYP3A Inducer on AUC (decrease), mean",[3]; mean of modafinil and efavirenz,↓ 35% (mean)
COc1ccc(F)cc1C(=O)NCc1ccc(-c2nn([C@@H](C)C(F)(F)F)c(N)c2C(N)=O)cc1 [Pirtobrutinib],Strong CYP3A Inducer Effect /Moderate CYP3A Inducer Effect,[2]; ratio of AUC decreases,1.45
same,Effect of Moderate CYP3A Inducer on AUC (decrease),[3]; Efavirenz,↓ 49%
same,Effect of Strong CYP3A Inducer on AUC (decrease),[3],↓ 71%
Cc1c(C(=O)Nc2ccc(N3C[C@@H](C)O[C@@H](C)C3)nc2)cccc1-c1ccc(OC(F)(F)F)cc1 [Sonidegib],Strong CYP3A Inducer Effect /Moderate CYP3A Inducer Effect,[2]; ratio of AUC decreases,1.56
same,Effect of Moderate CYP3A Inducer on AUC (decrease),[3]; Efavirenz,↓ 49%
same,Effect of Strong CYP3A Inducer on AUC (decrease),[3],↓ 76.6%
O=C1Nc2ccc(Cl)cc2[C@@](C#CC2CC2)(C(F)(F)F)O1 [efavirenz],Patients with neuropsychiatric effects,[5],up to 70%
NC(=O)C[S+]([O-])C(c1ccccc1)c1ccccc1 (stereo not shown) [modafinil],Patients with headache (only observed AE above this frequency),[5],> 15%
Cc1nnc2n1-c1ccc(Cl)cc1C(c1ccccc1Cl)=NC2 [triazolam],Decrease on mean AUCinf with modafinil,[3]; modafinil 200 mg for 7 days followed by 400 mg for 21 days,59%
